Test results published in publication PMC7651685 (Psychopharmacology, 2020).
Several values for one entry are separate records, joined by “and”; a condition that tells them apart may be missing. Identical values can stand only once. Counter-ions that a name gives are not always drawn. Like-named read-outs stand apart in the source and are kept apart here.

What was measured:
[1] = system: dopamine transporters (DAT); assay: [18F]-FE-PE2I PET displacement: DAT occupancy, displacement half-time and brain entry (modified GRTM); assay type: in vivo, rhesus macaques (Macaca mulatta); details: for Brain entry time, Caudate / Brain entry time, Putamen / Brain entry time, Mean: modified GRTM; for Brain entry time, Mean: mean over animals and regions; for Percent maximum displacement (= % DAT occupancy), Caudate\Putamen mean, Mean ± SD: group mean of four animals; for Percent maximum displacement (= % DAT occupancy), Caudate\putamen mean, Mean: mean of two animals
Experimental: Two male and two female rhesus macaques (Macaca mulatta) housed at the Yale University School of Medicine (New Haven, CT) were used for the [^18F]-FE-PE2I imaging. In all experiments, [^18F]-FE-PE2I was administered as a bolus plus constant infusion (Kbol from 168 to 216 min; total radioactivity = 162 ± 27 MBq) over 4 h to establish steady-state DAT binding. Bolus/infusion delivery parameters (i.e., Kbol) for [^18F]-FE-PE2I for each monkey were determined from baseline [^18F]-FE-PE2I scans that utilized single bolus intravenous injections of the radiotracer (Carson et al. [1993]). Identical procedures were used for list-mode image acquisition with a Siemens Focus 220 PET scanner for all DAT brain studies. The dynamic PET imaging series were reconstructed into 57 frames (6 × 0.5 min, 3 × 1 min, 2 × 2 min, and 46 × 5 min) using filtered back projection with standard corrections for random, scatter, and attenuation provided by the camera manufacturer.
At 2 h into the [^18F]-FE-PE2I scan, under tracer steady-state conditions, DAS or MPH was administered i.v. either as a 3 min i.v. bolus or as a bolus plus 4-step infusion over 40 min (four 10-min steps). The drug bolus experiments were carried out in all four rhesus macaques, each receiving DAS at 0.2 and 0.1 mg/kg and MPH at 0.5 and 0.1 mg/kg. The drug bolus plus 4-step infusion experiments were conducted in two rhesus macaques, each receiving DAS bolus injection over 30 s followed by a 4-step infusion over 40 min (four 10-min steps, 1.55, 1.45, 1.4, 1.3 mg) and MPH bolus injection over 30 s followed by an infusion over 40 min (four 10-min steps, 1.15, 1, 0.85, 0.75 mg).
Reconstructed dynamic PET images were transferred and analyzed using the image processing software package PMOD 3.6 (PMOD Technologies, Zurich, Switzerland). The PET images were normalized to an MR rhesus brain template (Rohlfing et al. [2012]) and a region of interest (ROI) atlas including the caudate nucleus, putamen, and cerebellar cortex was applied. Average activity concentration (kBq/cc) within each ROI was determined and time-activity curves (TAC) representing the regional brain activity concentration over time were generated. TACs were additionally expressed in SUV units (g/ml) by normalizing by the weight of the animal and the injected dose.
Reductions in radiotracer binding following administration of DAS or MPH were used to determine DAT occupancy while reductions in radiotracer binding over time were used to estimate brain entry and binding rates. The displacement half-time is defined as the time it takes from drug administration until 50% of maximal tracer displacement is achieved. Tracer displacement half-times were estimated using average uptake levels from the baseline and displacement experiments and expressing the change in standardized uptake values (SUV) units as a fraction (normalized) of the observed SUV difference at the end of the experiment. Normalized SUV values for caudate and putamen respectively were plotted against time for each dose of DAS and MPH respectively to estimate the drug displacement half-time.
Brain entry of DAS and MPH was determined by analyzing the [^18F]-FE-PE2I TACs in the putamen and caudate nucleus using a kinetic model using the cerebellar cortex as a reference region. The kinetic model is based on the generalized reference tissue model (GRTM; Votaw et al. [2002]) and a recent report of brain entry and binding rates measurement (Nicolas et al. [2016]). […] The half-life of the brain entry and binding of the drug was estimated as ln(2)/α. The kinetic model employs 5 parameters: R1, BPND, r, α, and k2′ where R1 is the relative tracer influx rate constant and k2′ is the reference tissue tracer efflux rate constant. The maximum occupancy was constrained to the measured displacement, while k2′ and α were constrained to a common value across the putamen and caudate nucleus.

DAT = details: cited from earlier work
[2] = 0.1 mg/kg MPH, bolus administration, individual animals A-D
[3] = 0.5 mg/kg MPH, bolus administration, individual animals A-D
[4] = 4.3 mg MPH, bolus + 4 step infusion, individual animals A, B
[5] = MPH 0.1 mg/kg i.v. 3 min bolus, individual animals A-D
[6] = MPH 0.5 mg/kg i.v. 3 min bolus, individual animals A-D
[7] = MPH 4.3 mg, bolus plus 4-step infusion over 40 min, individual animals A, B
[8] = 0.1 mg/kg DAS, bolus administration, individual animals A-D
[9] = 0.2 mg/kg DAS, bolus administration, individual animals A-D
[10] = 6 mg DAS, bolus + 4 step infusion, individual animals A, B
[11] = DAS 0.1 mg/kg i.v. 3 min bolus, individual animals A-D
[12] = DAS 0.2 mg/kg i.v. 3 min bolus, individual animals A-D
[13] = DAS 6.0 mg, bolus plus 4-step infusion over 40 min, individual animals A, B

## COC(=O)C(c1ccccc1)C1CCCCN1 (racemic) [MPH, (±)-Methyl α-Phenyl-α-(2-piperidyl)acetate hydrochloride, reference compound]
[1]; 0.1 mg/kg MPH i.v. bolus
  Averaged displacement half-time (between caudate and putamen): 15.5 min
[1]; [2]
  Brain entry time, Caudate: 2.57 min and 3.41 min and 2.60 min and 3.44 min
  Brain entry time, Putamen: 2.34 min and 2.59 min and 2.91 min and 4.28 min
[1]; 0.1 mg/kg MPH, bolus administration
  Brain entry time, Mean: 3 min and 3.02 ± 0.65 min and 3.02 min
[1]; 0.5 mg/kg MPH i.v. bolus
  Averaged displacement half-time (between caudate and putamen): 11.5 min
[1]; [3]
  Brain entry time, Caudate: 2.25 min and 2.19 min and 1.78 min and 2.65 min
  Brain entry time, Putamen: 2.07 min and 2.08 min and 2.09 min and 2.00 min
[1]; 0.5 mg/kg MPH, bolus administration
  Brain entry time, Mean: 2 min and 2.14 ± 0.25 min and 2.14 min
[1]; [4]
  Brain entry time, Caudate: 7.15 min and 6.48 min
  Brain entry time, Putamen: 5.77 min and 7.69 min
[1]; 4.3 mg MPH, bolus + 4 step infusion
  Brain entry time, Mean: 6.77 min
[1]; MPH 0.1 mg/kg i.v. 3 min bolus
  Percent maximum displacement (= % DAT occupancy), Caudate\Putamen mean, Mean ± SD: 69% and 68.60 ± 5.21%
[1]; [5]
  Percent maximum displacement (= % DAT occupancy), Caudate nucleus: 72.4% and 72.7% and 64.2% and 60.4%
  Percent maximum displacement (= % DAT occupancy), Caudate\Putamen mean: 73.1% and 63.6% and 64.6%
  Percent maximum displacement (= % DAT occupancy), Putamen: 73.7% and 73.5% and 62.9% and 68.8%
[1]; MPH 0.5 mg/kg i.v. 3 min bolus
  Percent maximum displacement (= % DAT occupancy), Caudate\Putamen mean, Mean ± SD: 88% and 88.20 ± 2.62%
[1]; [6]
  Percent maximum displacement (= % DAT occupancy), Caudate nucleus: 91.7% and 87.9% and 83.9% and 87.0%
  Percent maximum displacement (= % DAT occupancy), Caudate\Putamen mean: 91.3% and 88.5% and 84.9% and 88.1%
  Percent maximum displacement (= % DAT occupancy), Putamen: 90.9% and 89.0% and 85.9% and 89.1%
[1]; [7]
  Percent maximum displacement (= % DAT occupancy), Caudate nucleus: 87.9% and 90.2%
  Percent maximum displacement (= % DAT occupancy), Caudate\Putamen mean: 88.9% and 89.5%
  Percent maximum displacement (= % DAT occupancy), Putamen: 89.9% and 88.9%
[1]; MPH 4.3 mg, bolus plus 4-step infusion over 40 min
  Percent maximum displacement (= % DAT occupancy), Caudate\putamen mean, Mean: 89.2%
[1]; bolus + 4 step infusion, matched delivery, MPH relative to DAS
  Brain entry faster than DAS: ~3 fold
[1]; i.v. bolus, MPH relative to DAS
  Displacement of [18F]-FE-PE2I / DAT occupancy faster than DAS (displacement half-times): approximately 3 fold
DAT; ref Spencer et al. [2006]
  DAT occupancy OC50: 6 ng/mL

## N[C@@H]1CC[C@@H](c2ccc(Cl)c(Cl)c2)c2ccccc21 [DAS, (1R,4S)-4-(3,4-dichlorophenyl)-1,2,3,4-tetra-hydronaphthalen-1-amine]
[1]; 0.1 mg/kg DAS i.v. bolus
  Averaged displacement half-time (between caudate and putamen): 40 min
[1]; [8]
  Brain entry time, Caudate: 18.91 min and 27.13 min and 25.06 min and 19.23 min
  Brain entry time, Putamen: 15.35 min and 18.83 min and 33.22 min and 19.5 min
[1]; 0.1 mg/kg DAS, bolus administration
  Brain entry time, Mean: 22 min and 22.15 ± 5.85 min and 22.15 min
[1]; 0.2 mg/kg DAS i.v. bolus
  Averaged displacement half-time (between caudate and putamen): 31 min
[1]; [9]
  Brain entry time, Caudate: 19.90 min and 19.65 min and 12.09 min and 13.12 min
  Brain entry time, Putamen: 11.47 min and 17.71 min and 12.60 min and 16.03 min
[1]; 0.2 mg/kg DAS, bolus administration
  Brain entry time, Mean: 15 min and 15.32 ± 3.45 min and 15.32 min
[1]; [10]
  Brain entry time, Caudate: 16.07 min and 16.34 min
  Brain entry time, Putamen: 16.33 min and 18.57 min
[1]; 6 mg DAS, bolus + 4 step infusion
  Brain entry time, Mean: 16.83 min
[1]; DAS 0.1 mg/kg i.v. 3 min bolus
  Percent maximum displacement (= % DAT occupancy), Caudate\Putamen mean, Mean ± SD: 54% and 54.48 ± 10.04%
[1]; [11]
  Percent maximum displacement (= % DAT occupancy), Caudate nucleus: 56.1% and 49.9% and 40.8% and 53.4%
  Percent maximum displacement (= % DAT occupancy), Caudate\Putamen mean: 61.2% and 52.5% and 41.1% and 63.1%
  Percent maximum displacement (= % DAT occupancy), Putamen: 66.3% and 55.0% and 41.5% and 72.8%
[1]; DAS 0.2 mg/kg i.v. 3 min bolus
  Percent maximum displacement (= % DAT occupancy), Caudate\Putamen mean, Mean ± SD: 68% and 68.13 ± 10.30%
[1]; [12]
  Percent maximum displacement (= % DAT occupancy), Caudate nucleus: 64.8% and 67.9% and 70.1% and 50.7%
  Percent maximum displacement (= % DAT occupancy), Caudate\Putamen mean: 76% and 72.5% and 71% and 53%
  Percent maximum displacement (= % DAT occupancy), Putamen: 87.3% and 77.1% and 72% and 55.3%
[1]; [13]
  Percent maximum displacement (= % DAT occupancy), Caudate nucleus: 83.7% and 82.0%
  Percent maximum displacement (= % DAT occupancy), Caudate\Putamen mean: 81.6% and 85.6% and 81.7%
  Percent maximum displacement (= % DAT occupancy), Putamen: 87.4% and 81.3%
[1]; DAS 6.0 mg, bolus plus 4-step infusion over 40 min
  Percent maximum displacement (= % DAT occupancy), Caudate\putamen mean, Mean: 83.6%
[1]; i.v. administration, DAS relative to MPH
  Brain entry / DAT occupancy rate slower than MPH: ~ 7 fold and 5-11 fold
[1]; rhesus monkey, plasma level
  DAT RO50 from this study: 3.5 ng/mL
DAT; human, ref DeLorenzo et al. [2011], Hopkins et al. [2017]
  Reported human DAT RO50: 4.5 to 6 ng/mL
DAT; ref DeLorenzo et al. [2011]
  DAT occupancy OC50: 4 ng/mL
